Laboratory results as given in patent US20090093538A1, “Method for treating cancer” (priority 2007, published 2009).

Columns and labels:
[1] = system: human breast tumor MDA-MB-435; conditions: Paclitaxel 5 mg/kg + Compound 1 25 or 50 mg/kg, IV, 3 times a week for 3 weeks, nude mice
Protocol: The in vivo anti-cancer enhancing effect of novel compounds was assessed in tumor bearing mice using the tumor growth inhibition assay. Tumor cells were implanted by injection of a tumor cell suspension subcutaneously in the flank of a mouse. […] Tumors were measured two times a week. During the course of this assay, animals were monitored daily for signs of toxicity including body weight loss.

Hsp70 = assay: Cell surface expression of Hsp70, MCF-7 cells (immunofluorescence); type: cell-based, human; conditions: MCF-7, 0.5 μM, 3 hrs
Protocol: After treatment, cells were rinsed one time in PBS then fixed in 2% Paraformaldehyde at room temperature for 20 minutes. Slides with the fixed cells were rinsed with PBS two times. Primary antibody mouse monoclonal anti-Hsp70 (Stressgen SPA-8 10) was diluted 1:100 in PBS and the slides were incubated 1 hour at 37° C. The slides were rinsed two times with PBS. Secondary antibody anti-mouse AlexaFluor 488 (Molecular Probes A-11001) was diluted 1:500 in PBS and the slides were incubated 30 min at 37° C. The slides were rinsed two times in PBS. DAPI (Molecular Probes D-3571) were diluted 1:10,000 in PBS and the slides were incubated at room temperature in dark for 5 min. The slides were rinsed two times in PBS, then once in deionized water and left to dry in dark until almost completely dry. Coverslips were mounted with Prolong Anti-fade Mounting Media (Molecular Probes P-748 1). The images were captured with a monochrome CCD camera SenSys (see FIGS. 27A-D and 28A-D) or by confocal microscopy (see FIG. 29A-E). In FIGS. 27A-D and 28A-D, the bright pink color on the surface of the MCF-7 cells (FIG. 27A-D) or CEM cells (FIG. 28A-D) indicates Hsp70 on the surface of the cells. In FIG. 29A-E the bright green color on the surface of the cell indicates Hsp70 on the surface of the HT29 cells.

MAPKAPK-2 = MAPKAPK-2 phosphorylation, Western blot, CEM and CV-1 cells; type: cell-based; conditions: CEM and CV-1 tumor cells, 0.1 or 0.5 μM
Protocol: After treatment the cells were lysized and used for Western blot analysis.
Samples were run on a SDS-PAGE gel and proteins were transferred onto a nitrocellulose membrane by a semi-dry transfer. Nitrocellulose was blocked with 5% skim milk in TBS with 0.5% Tween at room temperature for 1 hour and then probed with anti-p-MAPKAPK-2 (Thr334) (#3041, Cell Signaling) antibody. Tubulin was used as a normalization control and was probed with Anti-Tubulin (T9026, Sigma) antibody.

For CN(NC(=O)CC(=O)NN(C)C(=S)c1ccccc1)C(=S)c1ccccc1 [Compound 1], which “anti-tumor activity (tumor volume)” value [1] is on record?
Its value is “significantly enhanced anti-tumor activity of paclitaxel”.

What about the “Hsp70 on the surface of cells” value (Hsp70) of the same compound?
The value was “bright pink fluorescent color on the surface of the cells indicating Hsp70”.

And the “Hsp70 on the surface of cells” value (Hsp70; then 2 hrs recovery without Compound 1)?
Its value is “stronger than immediately following treatment with Compound 1”.

What about the “phosphorylation of MAPKAPK-2” value (MAPKAPK-2) of the same compound?
The value was “induces the phosphorylation of MAPKAPK-2”.
